Results reported in article PMC6046546, “Gossypol Inhibits Non-small Cell Lung Cancer Cells Proliferation by Targeting EGFR^L858R/T790M” (Frontiers in Pharmacology, 2018).

Assays:
[1] = biological target: EGFR^WT (Homo sapiens, UniProt P00533); test: ELISA kinase activity assay, poly(Glu,Tyr) […] substrate, […] ATP; type: biochemical
[2] = biological target: T1, EGFR^L858R/T790M (Homo sapiens, UniProt P00533, L858R/T790M); test: ELISA kinase activity assay, recombinant kinase, poly(Glu,Tyr) […] substrate, […] ATP; type: biochemical
T1 construct: kinase domain
T1 sequence (P00533 696-1022 T790M/L858R limits assumed): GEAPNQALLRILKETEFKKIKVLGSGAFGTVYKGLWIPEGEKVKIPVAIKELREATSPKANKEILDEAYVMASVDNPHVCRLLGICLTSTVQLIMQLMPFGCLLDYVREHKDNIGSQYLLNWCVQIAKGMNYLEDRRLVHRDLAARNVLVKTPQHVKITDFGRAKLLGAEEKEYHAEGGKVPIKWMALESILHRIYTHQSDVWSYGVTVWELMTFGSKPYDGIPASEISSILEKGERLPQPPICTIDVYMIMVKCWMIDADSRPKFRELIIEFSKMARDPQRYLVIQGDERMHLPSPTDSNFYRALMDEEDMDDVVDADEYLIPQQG

Sequence of EGFR^WT (P00533 25-1210): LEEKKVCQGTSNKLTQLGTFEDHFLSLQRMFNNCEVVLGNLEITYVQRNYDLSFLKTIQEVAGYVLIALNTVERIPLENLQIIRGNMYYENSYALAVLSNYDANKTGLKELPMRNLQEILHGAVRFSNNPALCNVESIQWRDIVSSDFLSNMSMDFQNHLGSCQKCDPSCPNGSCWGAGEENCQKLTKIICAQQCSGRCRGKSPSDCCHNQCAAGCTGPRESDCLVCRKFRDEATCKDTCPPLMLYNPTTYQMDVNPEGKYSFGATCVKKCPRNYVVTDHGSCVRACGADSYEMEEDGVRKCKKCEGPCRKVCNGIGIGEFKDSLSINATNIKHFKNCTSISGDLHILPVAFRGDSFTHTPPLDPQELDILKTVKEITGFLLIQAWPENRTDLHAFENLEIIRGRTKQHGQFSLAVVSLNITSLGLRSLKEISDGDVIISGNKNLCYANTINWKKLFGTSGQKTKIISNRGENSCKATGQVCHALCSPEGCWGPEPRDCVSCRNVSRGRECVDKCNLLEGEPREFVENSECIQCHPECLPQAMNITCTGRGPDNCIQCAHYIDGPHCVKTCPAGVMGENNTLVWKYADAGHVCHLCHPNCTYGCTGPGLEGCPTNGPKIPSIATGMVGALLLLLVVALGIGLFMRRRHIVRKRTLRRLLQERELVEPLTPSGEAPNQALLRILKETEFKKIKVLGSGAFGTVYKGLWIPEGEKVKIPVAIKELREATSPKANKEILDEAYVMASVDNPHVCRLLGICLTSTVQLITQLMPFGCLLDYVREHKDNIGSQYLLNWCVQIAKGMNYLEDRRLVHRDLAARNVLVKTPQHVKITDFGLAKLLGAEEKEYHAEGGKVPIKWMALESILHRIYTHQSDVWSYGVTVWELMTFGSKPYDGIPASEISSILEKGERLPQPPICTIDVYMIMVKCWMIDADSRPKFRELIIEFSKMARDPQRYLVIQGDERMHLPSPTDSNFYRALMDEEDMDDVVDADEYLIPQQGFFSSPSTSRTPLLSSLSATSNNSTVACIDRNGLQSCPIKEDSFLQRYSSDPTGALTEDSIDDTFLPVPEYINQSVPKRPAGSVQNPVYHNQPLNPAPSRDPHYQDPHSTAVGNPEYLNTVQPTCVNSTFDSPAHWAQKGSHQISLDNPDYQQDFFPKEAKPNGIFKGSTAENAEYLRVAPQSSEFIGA

SMILES: Cc1cc2c(C(C)C)c(O)c(O)c(C=O)c2c(O)c1-c1c(C)cc2c(C(C)C)c(O)c(O)c(C=O)c2c1O [gossypol]
- EC50 [1]: 0.253 ± 0.0269 µM
- EC50 [2]: 0.15 ± 0.0307 µM
